The record followed here is patent US9399649B2, “Compounds for treating spinal muscular atrophy” (PTC Therapeutics Inc., priority 2012, dated 2016).

Test [1] relates to full length and Δ7 SMN2 mRNA. Put plainly: Endogenous SMN2 mRNA end-point semi-quantitative RT-PCR splicing assay in animal tissues. Format: in vivo. Particulars: C/C-allele SMA mice, brain and muscle, oral BID for 10 days, FIG. 7. The method, then: The endpoint reverse transcription-PCR (RT-PCR) splicing assay is used to quantify the levels of the full length and Δ7 SMN2 mRNA in tissues from mice treated with test compound.
C/C-allele SMA mice are treated by oral gavage BID for 10 days with test compounds in 0.5% HPMC and 0.1% Tween-80. Tissue samples are collected and snap frozen for RNA purification.
Tissue samples (20-40 mg) are homogenized in QIAzol Lysis Reagent for 2 minutes at 20 Hz in the TissueLyser II using one stainless steel bead. After addition of chloroform, the homogenate is separated into aqueous and organic phases by centrifugation. RNA partitioned to the upper, aqueous phase is extracted and ethanol is added to provide appropriate binding conditions. The sample is then applied to the RNeasy spin column from the RNeasy Mini Kit, where total RNA binds to the membrane. The RNA is eluted in RNase-free water then stored at −20° C.
SMN2 spliced products are identified using the following amplification primers in Table 8. These primers hybridize to a nucleotide sequence in exon 6 (SMN Forward D, SEQ ID NO. 13) (nucleotide 22 to nucleotide 46) and exon 8 (SMN Reverse C, SEQ ID NO. 12), common to human SMN1 and SMN2 mRNA. […]

A further test has as its system Smn protein. Kind of test: Smn protein in tissues of neonatal Δ7 SMA mice. The settings on record: neonatal SMA Δ7 homozygous knockout mice, IP QD for 7 days (PND 3 to PND 9), brain, spinal cord, muscle, FIG. 12. It counts as in vivo. Here is the method:
The tissue samples in Safe-Lock tubes are weighed and the volume of RIPA buffer containing the protease inhibitor cocktail is added based on the weight to volume ratios for each type of tissue: Brain (50 mgmL), Muscle (50 mgmL) and Spinal Cord (25 mgmL).
Tissues are homogenized using the TissueLyzer by bead milling. 5 mm stainless steel beads are added to the sample and shaken vigorously for 5 minutes at 30 Hz in the TissueLyzer. The samples are then centrifuged for 20 minutes at 14,000×g in a microcentrifuge and the homogenates transferred to the PCR plate. The homogenates are diluted in RIPA buffer to approximately 1 mgmL for HTRF and approximately 0.5 mgmL for total protein measurement using the BCA protein assay. […] Fluorescence for each well of the plate at 665 nm and 620 nm is measured on an EnVision multilabel plate reader (Perkin-Elmer). The total protein in the tissue homogenate is measured using the BCA assay according to the manufacturer's protocol.
The normalized fluorescence signal is calculated for each sample, Blank and vehicle control well by dividing the signal at 665 nm by the signal at 620 nm. Normalizing the signal accounts for possible fluorescence quenching due to the matrix effect of the tissue homogenate. […] The ΔF value for each tissue sample well is divided by the total protein quantity (determined using the BCA assay) for that tissue sample. […]

For the molecule `Cc1cn2cc(-c3cc4ccc(N5CCN(C)CC5)cc4c(=O)o3)nc2c(C)n1` [Cpd 65, 3-(6,8-dimethylimidazo[1,2-a]pyrazin-2-yl)-7-(4-methylpiperazin-1-yl)-1H-isochromen-1-one], in test [1], the “SMN2 FL mRNA in tissues (gel band)” value is listed as “progressively more SMN2 FL mRNA” and the “SMN2 Δ7 mRNA in tissues (gel band)” value was “less SMN2 Δ7 mRNA”. The “total protein normalized Smn level in tissues” value in the test with Smn protein is given as “dose dependently increased”.
